Laboratory results reported in patent publication US11878016B2, “Methods and products for treating subjects with autism spectrum disorders” (NEURIM PHARMACEUTICALS (1991) LTD., priority 2021, dated 2024).

Tested on: C57BL/6J mice exposed in utero to VPA (and SAL control offspring)
Assay: Three chamber test in the valproic acid (VPA) model of autism
Type: in vivo
From the text: Furthermore, rodents prenatally exposed to this drug display behavioral phenotypes characteristics of the human autism condition. This model might better represent the many cases of idiopathic autism which are of environmental/epigenetic origins than do transgenic models carrying mutations in single autism-associated genes. The VPA model is an environmentally triggered model with strong construct and clinical validity. The VPA-induced rodent model is an art-recognized and well-established and widely utilized animal model to test putative efficacy of pharmacological agents on behavioral and social elements in the autistic spectrum for humans.
C57BL/6J mice were obtained at 7-8 weeks of age and were mated, with pregnancy confirmed by the presence of a vaginal plug on embryonic day 0 (E0). On E12.5, pregnant females received a single intraperitoneal injection of sodium salt of valproic acid (VPA, 500 mg/kg) dissolved in saline (SAL). Control females received an equal volume of SAL only. Day of birth was recorded as PO (postnatal day zero). The offspring were weaned on P21 (postnatal day 21) and the male offspring were housed in groups of 4-5. Experiments were carried out on male offspring. The mice were housed in a temperature- and humidity-controlled environment with ad libitum access to food and water. Animals were maintained on a 12 hr light/dark schedule, with lights on at 8 A.M.
The male offspring of VPA-treated mice were divided into 4 groups (n=8-9 per group): VPA-Vehicle)+50 μg of ZnSO4, VPA-ticagrelor (0.3 mg/kg)+[…] of ZnSO4, VPA-ticagrelor (10 mg/kg)+50 μg of ZnSO4 and VPA-ticagrelor (30 mg/kg)+50 μg of ZnSO4. The male offspring of SAL-treated mice were divided into 2 groups (n=10 per group): SAL-Vehicle and SAL-ticagrelor (30 mg/kg)+50 μg of ZnSO4. From the sixth week to eight week of age, the mice received three once-weekly injections of either saline (50 μl/g ip) or ticagrelor (i.p.). Twenty-four hours after the last injection, the three chamber test was performed.
The three-chamber test assesses cognition in the form of general sociability and interest in social novelty in a rodent model of CNS disorders. This test measures the sociability, the propensity to spend time with another mouse, as compared to time spent alone in an identical but empty chamber.
The apparatus was an acrylic box (length: 62 cm, width: 41 cm, height: 30.5 cm) divided into three chambers. A 5 cm×5 cm opening was made on the partitions so that mice could freely explore the three chambers. Mouse was first placed into the centre chamber of the apparatus and allowed 5 min for habituation. Following the completion of the acclimatization period the test mouse was removed to a holding cage, and the bedding material was redistributed. Then a novel mouse enclosed in a tiny cage was placed in one lateral chamber (social area) and an empty tiny cage was placed in the other lateral chamber as a novel object (non-social area). Mouse was first placed into the centre chamber and allowed to freely explore the chambers for 10 min and the time spent in each of the three areas (social, centre, and non-social areas) was recorded.
Statistical Analyses: Statistical analyses for the data were performed using one-way or two-way RM ANOVA (SigmaStat 3.1). Post-hoc comparisons were performed with the Tukey HSD method. If data were not normally distributed, Kruskal-Wallis one way ANOVA on ranks followed by the Dunn's method was used. All data were represented as mean±SEM. Significant level was set at p<0.05.

[1] = SAL (control) offspring, ticagrelor 30 mg/kg i.p. + 50 μg ZnSO4, vs SAL-Vehicle, p>0.05

## CCCSc1nc(N[C@@H]2C[C@H]2c2ccc(F)c(F)c2)c2nnn([C@@H]3C[C@H](OCCO)[C@@H](O)[C@H]3O)c2n1 [ticagrelor, (1S,2S,3R,5S)-3-[7-[[(1R,2S)-2-(3,4-difluorophenyl)cyclopropyl]amino]-5-(propylthio)-3H-1,2,3-triazolo[4,5-d]pyrimidin-3-yl]-5-(2-hydroxyethoxy)-1,2-cyclopentanediol]
[1]
  time spent in non-social area: no significant difference
  time spent in social area: no significant difference
VPA offspring, ticagrelor 10 mg/kg i.p. + 50 μg ZnSO4, three once-weekly injections, test 24 h after the last, vs VPA-Vehicle, p<0.01
  time spent in social area: significant increase
VPA offspring, ticagrelor 10 mg/kg i.p. + 50 μg ZnSO4, vs VPA-Vehicle, p<0.01
  time spent in non-social area: significant decrease
VPA offspring, ticagrelor 30 mg/kg i.p. + 50 μg ZnSO4, three once-weekly injections, test 24 h after the last, vs VPA-Vehicle, p<0.001
  time spent in social area: significant increase
VPA offspring, ticagrelor 30 mg/kg i.p. + 50 μg ZnSO4, vs VPA-Vehicle, p<0.01
  time spent in non-social area: significant decrease
VPA offspring, ticagrelor 30 mg/kg i.p. + 50 μg ZnSO4, vs VPA-Vehicle, p<0.05
  time spent in centre area: significant decrease
Three once-weekly administrations of ticagrelor and zinc salt, C57BL/6J mice exposed in utero to VPA
  deficit in sociability: attenuated the deficit in sociability
